Assay: solvent given as SMILES

CCCCCCCCCC
Conditions | solvation free energy, 298 K [kcal/mol]
in CCC(C)(C)OC | -6.77
in CCC(C)=O | -6.01
in CCCCCC | -6.85
in CCCCCCCCCCCCCCCC | -6.34
in CCO | -5.35
in CCOC(=O)c1ccccc1C(=O)OCC | -5.13
in CN1CCCC1=O | -4.92
in CN(C)C=O | -4.94
in COCCO | -4.75
in Cc1ccc(C)cc1 | -6.68
in N#CCCCCC#N | -3.99
in O | 3.18
in O=CN1CCOCC1 | -4.15
in OCCO | -2.19
in OCCOCCO | -3.2
in OCCOCCOCCO | -3.33
in OCCOCCOCCOCCO | -3.61

Clc1c(Cl)c(Cl)c(Cl)c(Cl)c1Cl
Conditions | solvation free energy, 298 K [kcal/mol]
in C1CCOC1 | -11
in C1COCCO1 | -10.8
in CC(C)CC(C)(C)C | -10
in CC(C)CCO | -9.59
in CCCC(C)O | -9.45
in CCCCC(CC)CO | -9.86
in CCCCCC | -10.2
in CCCCCCC | -10.2
in CCCCCCCC | -10.3
in CCCCCCCCC=CCCCCCCCC(=O)OCC(COC(=O)CCCCCCCC=CCCCCCCCC)OC(=O)CCCCCCCC=CCCCCCCCC | -9.52
in CCCCCCCCCC | -10.3
in CCCCCCCCO | -9.78
in CCCCCl | -10.6
in CCCCOC(C)=O | -10.4
in CCCCOCCCC | -10.4
in CCOC(C)=O | -10.2
in COC(C)=O | -10.2

CC1CCCCC1
Conditions | solvation free energy, 298 K [kcal/mol]
in C1CCOC1 | -4.67
in C1COCCO1 | -4.09
in CC1CCS(=O)(=O)C1 | -3
in CC#N | -3.28
in CC(=O)N(C)C | -3.68
in CC(C)=O | -3.93
in CC(C)CCCC(C)CCCC(C)CCCCC(C)CCCC(C)CCCC(C)C | -4.3
in CC(C)O | -3.79
in CCC#N | -4.07
in CCC(C)=O | -4.12
in CCCC#N | -3.63
in CCCCC(CC)COC(=O)c1ccccc1C(=O)OCC(CC)CCCC | -3.99
in CCCCCCC | -4.79
in CCCCCCCCC=CCCCCCCCC(=O)OCC(COC(=O)CCCCCCCC=CCCCCCCCC)OC(=O)CCCCCCCC=CCCCCCCCC | -4.26
in CCCCCCCCCC | -4.57
in CCCCCCCO | -4.16
in CCCCN(C=O)CCCC | -4.05
in CCCCOC(=O)c1ccccc1C(=O)OCCCC | -4.11
in CCOC(=O)c1ccccc1C(=O)OCC | -3.59
in CN1CCCC1=O | -3.59
in CN1CCCCC1=O | -3.72
in CN(C)C=O | -3.52
in CNC(C)=O | -3.59
in CNC=O | -3.18
in COC(C)(C)C | -4.8
in COCCO | -3.47
in CS(C)=O | -2.73
in NC=O | -1.42
in Nc1ccccc1 | -3.29
in O | 1.7
in O=C1CCCO1 | -3
in O=CN1CCOCC1 | -2.94
in OCCCCCO | -2.87
in OCCCCO | -2.77
in OCCCO | -2.39
in OCCO | -1.58
in OCCOCCO | -2.38
in OCCOCCOCCO | -2.44
in OCCOCCOCCOCCO | -2.55
in OCCS | -2.82

CCCCCCCCP(=O)(CCCCCCCC)CCCCCCCC
Conditions | solvation free energy, 298 K [kcal/mol]
in O | -15.5

Cc1ccc(O)c(O)c1
Conditions | solvation free energy, 298 K [kcal/mol]
in CCCCCC | -6.99
in CCCCCCC | -7.05
in CCCCCCCC | -7.02
in Cc1ccc(C)cc1 | -9.05
in Cc1cccc(C)c1 | -9.05
in Cc1ccccc1C | -9.05

CCCN(CCC)N=O
Conditions | solvation free energy, 298 K [kcal/mol]
in CC(C)CC(C)(C)C | -6.56

CCCCOCC
Conditions | solvation free energy, 298 K [kcal/mol]
in CC(C)CCl | -4.73
in CCC(C)Cl | -4.73
in CCCCCl | -4.77
in ClC(Cl)(Cl)Cl | -4.91

Cc1cc(C)cc(C)c1
Conditions | solvation free energy, 298 K [kcal/mol]
in O | -0.77
in OCCO | -3.76
in OCCOCCO | -4.65

C=CCCCCCCCCCC
Conditions | solvation free energy, 298 K [kcal/mol]
in CN(C)C=O | -6.25
in O | 2.58

CCC(C)(C)C
Conditions | solvation free energy, 298 K [kcal/mol]
in C=CCCCCCCCCCCCCCC | -3.12
in CC#N | -2.32
in CC(C)CCCC(C)CCCC(C)CCCCC(C)CCCC(C)CCCC(C)C | -3
in CC(C)O | -2.73
in CCC(C)(C)OC | -3.49
in CCCCCC | -3.63
in CCCCCCCCCC | -3.38
in CCCCCCCCCCCCCCCC | -3.18
in CCCCCCCCCOC(=O)c1ccccc1C(=O)OCCCCCCCCC | -2.76
in CCCCCO | -2.93
in CCCCO | -2.89
in CN1CCCC1=O | -2.13
in CN(C)C=O | -2.33
in O | 2.51

CC(F)(F)Cl
Conditions | solvation free energy, 298 K [kcal/mol]
in CCCCCCCC(=O)OCC(COC(=O)CCCCCCC)OC(=O)CCCCCCC | -1.84
in CCCCCCCCC | -1.74
in CCCCCCCCO | -1.62
in CN1CCCC1=O | -2.13
in CN(C)C=O | -2.09
in O | 0.61

CCCC(C)=O
Conditions | solvation free energy, 298 K [kcal/mol]
in CC(C)CC(C)(C)C | -4.14
in CC(C)CCCC(C)CCCC(C)CCCCC(C)CCCC(C)CCCC(C)C | -3.72
in CCCCCCC | -4.07
in CCCCCCCC | -3.87
in CCCCCCCCCC | -3.93
in CCCCCCCCCCCCCCCC | -3.74
in CCCCCCCCO | -4.35
in CCN1CCCC1=O | -4.86
in CCN(CC)C(C)=O | -4.91
in CCNC(C)=O | -4.61
in CCNC=O | -4.69
in CN1CCCC1=O | -4.73
in CN1CCCCC1=O | -4.83
in CNC=O | -4.69
in CO | -4.88
in NC=O | -4.12
in O | -3.46
in O=CN1CCOCC1 | -4.52
in [2H]O[2H] | -3.38

CC1=CCC(C(C)C)C=C1 (stereo not given)
Conditions | solvation free energy, 298 K [kcal/mol]
in O | 0.2

CCCCCCCCO
Conditions | solvation free energy, 298 K [kcal/mol]
in CC(C)CC(C)(C)C | -6.52
in CCC(C)=O | -8.2
in CCCCCCC | -6.38
in CCCCCCCCCCCCCCCC | -6.17
in CCCCCCCCCO | -8.45
in CCCCCCO | -8.58
in CCCCCl | -7.22
in CO | -8.03
in NC=O | -6.49
in O | -4.07

CCCC(=O)CC(=O)CCC
Conditions | solvation free energy, 298 K [kcal/mol]
in O | -4.33

COc1ccc2cc(C(C)C(=O)O)ccc2c1 (stereo not given)
Conditions | solvation free energy, 298 K [kcal/mol]
in C1CCOC1 | -17.9
in C1COCCO1 | -17.7
in CC(C)CCO | -16.4
in CC(C)CO | -16.3
in CC(C)O | -16.6
in CCC(C)O | -16.6
in CCCC(C)O | -16.5
in CCCCCCCCCCO | -16.2
in CCCCCCCO | -16.5
in CCCCCCO | -16.5
in CCCCCO | -16.5
in CCCCO | -16.6
in CCCCOC(C)=O | -16.6
in CCCO | -16.6
in CCO | -16.7
in CCOC(C)=O | -17.1
in CCOCC | -16.7
in CO | -16.7
in COC(C)=O | -17

O=C(O)CCCCCCc1ccccc1
Conditions | solvation free energy, 298 K [kcal/mol]
in O | -8.72

CCCCCCCCCCOC(=O)c1ccccc1C(=O)OCC
Conditions | solvation free energy, 298 K [kcal/mol]
in O | -6.78

CCC=C(C)C
Conditions | solvation free energy, 298 K [kcal/mol]
in C=CCCCCCCCCCCCCCC | -3.42
in CN1CCCC1=O | -3.06
in CN(C)C=O | -3.12
in O | 1.47

CC(C(=O)O)c1ccc(C(=O)c2cccs2)cc1 (stereo not given)
Conditions | solvation free energy, 298 K [kcal/mol]
in O | -13.9

ClC(Cl)C(Cl)(Cl)Cl
Conditions | solvation free energy, 298 K [kcal/mol]
in O | -1.31

Oc1c(Cl)cc(Cl)cc1Cl
Conditions | solvation free energy, 298 K [kcal/mol]
in CCCCCCCCC=CCCCCCCCC(=O)OCC(COC(=O)CCCCCCCC=CCCCCCCCC)OC(=O)CCCCCCCC=CCCCCCCCC | -8.28
in O | -4.95

C=CCO
Conditions | solvation free energy, 298 K [kcal/mol]
in CC(=O)N(C)C | -4.69
in CCCCN(C=O)CCCC | -5.42
in CNC(C)=O | -5.87
in O | -5.04

CCC(O)(CC)CC
Conditions | solvation free energy, 298 K [kcal/mol]
in CCCCCCCC | -5.42
in CCCCCCCCCC | -5.34

Clc1ccc(-c2c(Cl)c(Cl)cc(Cl)c2Cl)cc1Cl
Conditions | solvation free energy, 298 K [kcal/mol]
in O | -4.38

c1nc[nH]n1
Conditions | solvation free energy, 298 K [kcal/mol]
in COC(C)=O | -10.3
in O | -11.6

CCCCCC(=O)OCC
Conditions | solvation free energy, 298 K [kcal/mol]
in O | -2.24

C1=CCCC1
Conditions | solvation free energy, 298 K [kcal/mol]
in CN1CCCC1=O | -2.84
in CN(C)C=O | -2.93
in CS(C)=O | -2.72
in O | 0.54
in O=CN1CCOCC1 | -2.52

CC1CCCC1
Conditions | solvation free energy, 298 K [kcal/mol]
in CC1CCS(=O)(=O)C1 | -2.51
in CC#N | -2.8
in CCCCCCCCCC | -3.93
in CCCCCCCO | -3.51
in CCCCCO | -3.51
in CN1CCCC1=O | -2.99
in CN1CCCCC1=O | -3.16
in CN(C)C=O | -3
in CNC=O | -2.67
in COCCO | -2.99
in CS(C)=O | -2.47
in O | 1.6
in O=CN1CCOCC1 | -2.47
in OC1CCCCC1 | -3.44
in OCCOCCO | -1.85
in OCCS | -2.33
in OCc1ccccc1 | -3.01

CNC(=O)c1ccccc1
Conditions | solvation free energy, 298 K [kcal/mol]
in CC(C)CC(C)(C)C | -7.63

Oc1ccccc1Br
Conditions | solvation free energy, 298 K [kcal/mol]
in CC(C)CC(C)(C)C | -6.25
in CCCCCC | -6.52
in CCCCCCC | -6.49
in CCCCCCCC | -6.47
in CCCCCCCCCC | -6.44
in Cc1ccc(C)cc1 | -7.18
in Cc1cccc(C)c1 | -7.27
in Cc1ccccc1C | -7.22
in O | -5.06

COC(=O)c1ccc(I)cc1
Conditions | solvation free energy, 298 K [kcal/mol]
in CN(C)C=O | -10.7
in O | -5.09
